Experiment [1] addresses T1, PGD2 receptor (Homo sapiens, UniProt Q13258).
T1 construct: A suspension adjusted to contain the platelets at a final concentration of 5×10^8/ml was warmed at 37° C; endogenous in cells; host or cells: washed human platelets from a healthy volunteer
T1 sequence (Q13258 1-359): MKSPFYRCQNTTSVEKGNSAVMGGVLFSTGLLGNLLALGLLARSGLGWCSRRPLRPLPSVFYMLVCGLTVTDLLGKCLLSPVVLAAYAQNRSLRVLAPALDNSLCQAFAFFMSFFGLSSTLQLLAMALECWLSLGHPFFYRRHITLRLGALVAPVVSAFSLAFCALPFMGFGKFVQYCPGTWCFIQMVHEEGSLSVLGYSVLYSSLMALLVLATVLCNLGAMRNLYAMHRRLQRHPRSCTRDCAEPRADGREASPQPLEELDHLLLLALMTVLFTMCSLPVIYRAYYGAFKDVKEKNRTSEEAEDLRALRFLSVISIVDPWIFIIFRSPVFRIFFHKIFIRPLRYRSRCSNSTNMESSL
Nature of the experiment: Binding activity to PGD2 receptor ([3H]PGD2, human platelet membrane fraction). How it is done: Experiment 1 Binding Activity to PGD2 Receptor
(§1) (1) Preparation of Human Platelet Membrane Fraction
Blood was collected using a plastic syringe containing 3.8% sodium citrate from the vein of healthy volunteers (adult male and female), then put into a plastic test tube and mixed by slow-reversion. The sample was then centrifuged at 1800 rpm, for 10 min at room temperature, and the supernatant containing PRP (platelet-rich plasma) was collected. The PRP was re-centrifuged at 2300 rpm, for 22 min at room temperature to obtain platelets. The platelets were homogenized using a homogenizer (Ultra-Turrax) followed by centrifugation 3 times at 20,000 rpm, 10 min at 4° C. to obtain a platelet membrane fraction. After protein determination, the membrane fraction was adjusted to 2 mg/ml and preserved in a refrigerator at −80° C. until using for the binding test.
(2) Binding to PGD2 Receptor
To a binding-reaction solution (50 mM Tris/HCl, pH 7.4, 5 mM MgCl2) (0.2 ml) were added the human platelet membrane fraction (0.1 mg) and 5 nM [^3H]PGD2 (115 Ci/mmol), and the mixture was reacted at 4° C. for 90 min. After the reaction, the mixture was filtered through a glass fiber filter paper and washed several times with cooled physiological saline, then the radioactivity retained on the filter paper was measured. The specific-binding ratio was calculated by subtracting the non-specific binding ratio which is the radioactivity similarly measured in the presence of 10 μM PGD2 from the total binding. The inhibitory activity of each compound was expressed as the concentration required for 50% inhibition (IC50), which was determined by depicting a substitution curve by plotting the binding ratio (%) in the presence of each compound, where the binding ratio in the absence of a test compound is 100%.

Experiment [2] addresses T1, PGD2 receptor. The experiment can be described thus: Antagonistic activity against PGD2 receptor using human platelet (inhibition of PGD2-induced cAMP increase). The format is cell-based. How it is done: Experiment 3 Evaluation of Antagonistic Activity Against PGD2 Receptor
Receptor Using Human Platelet
Peripheral blood was collected from a healthy volunteer using a syringe in which 1/9 volume of a citric acid/dextrose solution was previously added. The sample was subjected to centrifugation at 1200 rpm for 10 min to obtain the supernatant (PRP: platelet rich plasma). The resultant PRP was washed 3 times with a washing buffer and the number of platelets was counted with a micro cell counter. A suspension adjusted to contain the platelets at a final concentration of 5×10^8/ml was warmed at 37° C., then subjected to the pre-treatment with 3-isobutyl-1-methylxanthine (0.5 mM) for 5 min. To the suspension was added a test compound diluted at various concentration, and 10 minutes later, 0.1 μM PGD2 was added to induce the reaction 2 minutes later, hydrochloric acid was added to terminate the reaction. The platelet was destroyed with an ultrasonic homogenizer. After centrifugation, the cAMP in the supernatant was determined by radioimmunoassay. PGD2 receptor antagonism of a drug was evaluated as follows: the inhibition rate regarding cAMP increased by the addition of PGD2 was determined at each concentration, and the concentration of the drug required for 50% inhibition (IC50) was calculated.

The next experiment has as its target T2, TXA2 receptor (Homo sapiens, UniProt P21731).
T2 construct: The human platelet membrane fraction was prepared in accordance with Experiment 1 (1); from tissue; host or cells: human platelet membrane fraction from blood of healthy volunteers
T2 sequence (P21731 1-343): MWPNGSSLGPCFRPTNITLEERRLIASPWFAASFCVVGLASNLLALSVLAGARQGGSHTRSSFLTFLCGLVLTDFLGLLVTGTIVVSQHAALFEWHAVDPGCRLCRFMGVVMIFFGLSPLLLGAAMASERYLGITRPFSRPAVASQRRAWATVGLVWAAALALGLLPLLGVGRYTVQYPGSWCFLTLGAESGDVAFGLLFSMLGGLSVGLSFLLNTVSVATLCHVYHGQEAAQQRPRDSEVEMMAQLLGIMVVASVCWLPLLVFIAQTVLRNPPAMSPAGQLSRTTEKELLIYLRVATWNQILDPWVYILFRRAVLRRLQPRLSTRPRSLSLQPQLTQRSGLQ
Nature of the experiment: Binding activity to TXA2 receptor ([3H](+)-S-145 sodium salt, human platelet membrane fraction). The procedure:
Experiment 2 Binding Activity to TXA2 Receptor
as §1
The human platelet membrane fraction was prepared in accordance with Experiment 1 (1).
(2) Binding to TXA2 Receptor
To a binding-reaction solution (50 mM Tris/HCl, pH 7.4, 10 mM MgCl2) (0.2 ml) were added the human platelet membrane fraction (0.05 mg) and 2 nM Sodium [^3H](+)-(5Z)-7-[3-endo-[(phenylsulfonyl)amino]bicyclo[2.2.1]hept-2-exo-yl]heptenoate (Japanese Patent Publication (Kokoku) No.79060/1993, hereinafter referred to as (+)-S-145 sodium salt) (26.4 Ci/mmol), and the mixture was reacted at room temperature for 90 min. After the reaction, the resultant mixture was filtered through a glass fiber filter paper and washed several times with cooled physiological saline, then the radioactivity retained on the filter paper was measured. The specific-binding ratio was calculated by subtracting the non-specific binding ratio (the radio activity similarly determined in the presence of 10 μM (+)-S-145 sodium salt) from the total binding. The inhibitory activity of each compound was expressed as the concentration required for 50% inhibition (IC50), which was determined by depicting a substitution curve by plotting the binding ratio (%) in the presence of each compound, where the binding ratio in the absence of a test compound is 100%.

The mark [3] stands for this setting: human platelet, 0.1 μM PGD2, read-out: Inhibitory activity for the increase of cAMP caused by PGD2 in human platelet IC50.
Where [4] appears, read: human platelet membrane fraction, 2 nM [3H](+)-S-145 sodium salt, read-out: Binding activity to TXA2 receptor in human platelet membrane fraction IC50.
Setting [5] is: human platelet membrane fraction, read-out: Binding activity to PGD2 receptor in human platelet membrane fraction IC50.

As usually defined, the IC50 is the concentration that inhibits the measured activity by half.

Read-outs that look alike come from different tables or passages of the source.

With `CC1(C)[C@H]2C[C@H](C/C=C\CCCC(=O)O)[C@@H](NC(=O)c3csc4ccccc34)[C@@H]1C2` [B-1, reference compound], the IC50 at PGD2 receptor [1] (comparative experiment in accordance with Experiment 1, read-out: Experiment 1 Antagonistic activity against PGD2 receptor IC50) turned out to be 22 nM; at PGD2 receptor [2] (comparative experiment in accordance with Experiment 3, read-out: Experiment 3 Antagonistic activity against PGD2 receptor IC50) it was 30 nM; at TXA2 receptor (comparative experiment in accordance with Experiment 2, read-out: Experiment 2 Antagonistic activity against TXA2 receptor IC50), 370 nM.

With `O=C(O)CCCC[C@H]1[C@@H]2CC[C@@H](C2)[C@@H]1NC(=O)c1ccc(Sc2cccs2)s1` [I-5A-59a], the IC50 was 79 nM on PGD2 receptor [2] (setting [3]) and 11 nM on TXA2 receptor (setting [4]).

For `O=C(O)CCCCCC[C@H]1[C@@H]2CC[C@@H](C2)[C@@H]1NC(=O)c1ccc(Sc2cccs2)s1` [I-7A-59a], the IC50 on PGD2 receptor [2] (setting [3]) stood at 12 nM; at TXA2 receptor (setting [4]), 9.8 nM.

For `O=C(O)COCCCC[C@H]1[C@@H]2CC[C@@H](C2)[C@@H]1NC(=O)c1ccc(Sc2cccs2)s1` [I-7M-59a], the IC50 at PGD2 receptor [2] (setting [3]) came to 24 nM; on TXA2 receptor (setting [4]) it was 40 nM.

Take `O=C(O)CCC/C=C\C[C@H]1[C@@H]2CC[C@@H](C2)[C@@H]1NC(=O)c1ccc(S(=O)(=O)n2cccc2)cc1` [I-10]: the IC50 on PGD2 receptor [1] (setting [5]) amounted to 1.6 nM; at PGD2 receptor [2] (setting [3]) it was 1.8 nM; on TXA2 receptor (setting [4]), 92 nM.

With `O=C(O)CCC/C=C\C[C@H]1[C@@H]2CC[C@@H](C2)[C@@H]1NC(=O)c1ccc(Cc2ccccc2)s1` [I-31], the concentration for half-maximal inhibition (IC50) at PGD2 receptor [1] (setting [5]) amounted to 8.2 nM; on PGD2 receptor [2] (setting [3]) it was 5.7 nM; on TXA2 receptor (setting [4]), 130 nM.

For `O=C(O)CCC/C=C\C[C@H]1[C@@H]2CC[C@@H](C2)[C@@H]1NC(=O)c1ccc(S(=O)(=O)c2cccs2)s1` [I-47], the figures for the IC50 on PGD2 receptor [1] (setting [5]), on PGD2 receptor [2] (setting [3]) and on TXA2 receptor (setting [4]) were 4.1 nM, 7 nM and 6.2 nM, respectively.

Regarding `O=C(O)CCC/C=C\C[C@H]1[C@@H]2CC[C@@H](C2)[C@@H]1NC(=O)c1ccc(Sc2cccs2)s1` [I-59], the IC50 on PGD2 receptor [1] (setting [5]) was 0.41 nM; on PGD2 receptor [2] (setting [3]) it was 4.6 nM; on TXA2 receptor (setting [4]), 16 nM.

Consider `O=C(O)CCC/C=C\C[C@H]1[C@@H]2CC[C@@H](C2)[C@@H]1NC(=O)c1ccc(SCc2cccs2)cc1` [I-66], for which the IC50 on PGD2 receptor [1] (setting [5]) stood at 4.6 nM; at PGD2 receptor [2] (setting [3]) it was 44 nM; at TXA2 receptor (setting [4]) it was 34 nM.

`COc1ccccc1Cc1ccc(C(=O)N[C@H]2[C@H]3CC[C@H](C3)[C@@H]2CCCC/C=C/C(=O)O)s1` [I-71-126a]: the values for the IC50 on PGD2 receptor [2] (setting [3]) and at TXA2 receptor (setting [4]) were 21 nM and 61 nM, respectively.

Take `Cc1ccc(C)n1S(=O)(=O)c1ccc(C(=O)N[C@H]2[C@H]3CC[C@H](C3)[C@@H]2CCCC/C=C/C(=O)O)s1` [I-71-270a]: the IC50 at PGD2 receptor [2] (setting [3]) amounted to 26 nM; at TXA2 receptor (setting [4]), 0.9 nM.

For `O=C(O)CCC/C=C\C[C@H]1[C@@H]2CC[C@@H](C2)[C@@H]1NC(=O)c1ccc(Sc2ccsc2)s1` [I-79], the values for the IC50 on PGD2 receptor [1] (setting [5]), on PGD2 receptor [2] (setting [3]) and at TXA2 receptor (setting [4]) were 0.42 nM, 24 nM and 15 nM, respectively.

On to `O=C(O)CCC/C=C\C[C@H]1[C@@H]2CC[C@@H](C2)[C@@H]1NC(=O)c1ccc(S(=O)(=O)c2ccsc2)s1` [I-80], for which the IC50 at PGD2 receptor [1] (setting [5]) was found to be 6.6 nM; at PGD2 receptor [2] (setting [3]), 39 nM; at TXA2 receptor (setting [4]), 5.2 nM.

In the case of `Cc1ccc(S(=O)(=O)c2ccc(C(=O)N[C@H]3[C@H]4CC[C@H](C4)[C@@H]3C/C=C\CCCC(=O)O)s2)s1` [I-82], the IC50 on PGD2 receptor [1] (setting [5]) is 32 nM; at PGD2 receptor [2] (setting [3]), 53 nM; on TXA2 receptor (setting [4]) it was 1.8 nM.

With `O=C(O)CCC/C=C\C[C@H]1[C@@H]2CC[C@@H](C2)[C@@H]1NC(=O)c1cc(Cc2cccs2)cs1` [I-88], the IC50 on PGD2 receptor [1] (setting [5]) is 7.6 nM; on PGD2 receptor [2] (setting [3]) it was 4.7 nM; at TXA2 receptor (setting [4]), 78 nM.

As to `O=C(O)CCC/C=C\C[C@H]1[C@@H]2CC[C@@H](C2)[C@@H]1NC(=O)c1ccc(Cc2cccs2)s1` [I-93], the values for the IC50 at PGD2 receptor [1] (setting [5]), on PGD2 receptor [2] (setting [3]) and at TXA2 receptor (setting [4]) were 7 nM, 8.4 nM and 72 nM, respectively.

On to `O=C(O)CCC/C=C\C[C@H]1[C@@H]2CC[C@@H](C2)[C@@H]1NC(=O)c1ccn(S(=O)(=O)c2cccs2)c1` [I-94], for which the IC50 was found to be 1 nM on PGD2 receptor [1] (setting [5]), 10 nM on PGD2 receptor [2] (setting [3]) and 83 nM at TXA2 receptor (setting [4]).

For the compound `O=C(O)CCC/C=C\C[C@H]1[C@@H]2CC[C@@H](C2)[C@@H]1NC(=O)c1ccc(CSc2cccs2)s1` [I-104], the IC50 at PGD2 receptor [1] (setting [5]) amounted to 0.1 nM; at PGD2 receptor [2] (setting [3]) it was 1.6 nM; at TXA2 receptor (setting [4]) it was 39 nM.

(Values after patent US7084136B2, “Drug composition antagonistic to both PGD2/TXA2 receptors” (Shionogi & Co., Ltd., priority 2000, dated 2006).)
